Results published in PMC10378394 (Current Issues in Molecular Biology, 2023).

Assays:
CSF1R [1] = molecular target: T1, CSF1R (Mus musculus, UniProt P09581); test: Western blot in BMDMs, ligand-dependent phosphorylation; assay type: cell-based; conditions: 2 h treatment, CSF1 100 ng/mL 15 min
T1 construct: endogenous in cells; host or cells: mouse bone-marrow-derived macrophages (BMDMs)
Protocol: (§1) HCT116, LS513, SW620, HUVECs, and HT29 cell lines were purchased from the Korean Cell Line Bank (Seoul, Korea). All cell lines were maintained in RPMI or DMEM (Gibco Inc., Billings, MT, USA) supplemented with 10% FBS (Gibco, USA) and penicillin–streptomycin in an incubator at 37 °C and 5% CO2. Bone marrow cells were isolated from the femur and tibia of mice using a single-pass bone marrow aspiration. Cells were cultured in RPMI medium supplemented with 10% FBS and 100 ng/mL CSF1 (Peprotech, Rocky Hill, NJ, USA) for 7 days to differentiate into bone-marrow-derived macrophages (BMDMs).
(§2) In 6-well plates, LS513 cells were seeded and allowed to adhere and proliferate for 24 h. […] After treatment, the cells were harvested using RIPA lysis buffer to extract cellular proteins. The cell lysates were subjected to Western blot analysis. […] The cell lysates were analyzed by Western blot using specific antibodies, such as p-CSF1R (Cell Signaling, #14591S), CSF1R (Cell Signaling, #67455S), p-TIE2 (Cell Signaling, #4221S), and TIE2 (Santa Cruz Biotechnology, Dallas, TX, USA, #sc-293414), to detect and analyze the respective proteins.

TIE2 = molecular target: T2, TIE2 (Mus musculus, UniProt Q02858); test: as above; assay type: cell-based; conditions: 2 h treatment, angiopoietin 2 100 ng/mL 15 min
T2 construct: endogenous in cells; host or cells: mouse bone-marrow-derived macrophages (BMDMs)
Protocol: as §1, §2

HUVECs = test: Tube formation assay; assay type: cell-based, human
Protocol: Cell culture plates were coated with Matrigel at a concentration of 7 mg/mL and incubated at 37 °C for 45 min to allow gel formation. Human umbilical vein endothelial cells (HUVECs) were harvested using trypsin and resuspended in endothelial cell growth medium. Following a 5 h incubation period, the formation of endothelial cell tubes was assessed using an inverted photomicroscope (Nikon, Tokyo, Japan). Microphotographs were taken, and the quantification of tube formation, specifically tube length, was performed. To quantify tube formation, measurements were obtained using ImageJ. The long axis of each tube or single cell, as well as groups of adjacent cells, was measured.

MC38 tumor tissue = test: Immunofluorescence of tumor tissue; assay type: in vivo, mouse; conditions: MC38 tumors of treated mice
Protocol: Immunofluorescence staining was performed on tumor tissues. First, tumor tissue fixation was performed using 4% paraformaldehyde (Sigma-Aldrich, #HT5011). Next, heat-induced epitope retrieval was performed by incubating the tissue in 10 mM sodium citrate for 10 min. Subsequently, permeabilization was achieved by treating the tissue with 0.2% Triton X-100 (Sigma-Aldrich, #X100) for 5 min. To block nonspecific binding, the tissue was incubated in 5% skim milk for 40 min. Primary antibodies, including FOXP3 (eBioscience, San Diego, CA, USA, #11-5773-82), CD8 (eBioscience #53-0081-82), CD31 (Abcam, Cambridge, UK, #ab28364), F480 (Abcam #ab6640), CD163 (Abcam #ab182422), and CD206 (Abcam #ab64693), were used. The secondary antibodies used were FITC-conjugated AffiniPure F(ab’)2 fragment goat anti-rat IgG (H + L) (Jackson ImmunoResearch, West Grove, PA, USA, #112-096-003) and Cy3-conjugated AffiniPure F(ab’)2 fragment goat anti-rabbit IgG (H + L) (Jackson ImmunoResearch #111-166-003). The stained tissue was mounted using ProLong™ Gold Antifade Mountant with DAPI (Invitrogen, Waltham, MA, USA) #14-5773-82). Fluorescent images of the samples were captured using the Agilent BioTek Cytation 1 device. The images were analyzed using the Gen5 program (Version3, BioTek, Winooski, VT, USA) to extract relevant data and perform quantitative analysis.

[2] = Single oral dose toxicity study; assay type: in vivo, Sprague Dawley rats; conditions: 500 mg/kg oral
CSF1R [3] = molecular target: CSF1R (Homo sapiens, UniProt P07333); test: Eurofins kinase assay
BRAF = BRAF (Homo sapiens, UniProt P15056); test: Eurofins kinase assay
BTK(h) = BTK(h) (Homo sapiens, UniProt Q06187); test: Eurofins kinase assay
ATR/ATRIP(h) = ATR/ATRIP(h) (Homo sapiens, UniProt Q13535); test: Eurofins kinase assay
PDK1(h) = PDK1(h) (Homo sapiens, UniProt O15530); test: Eurofins kinase assay
PKCε(h) = PKCε(h) (Homo sapiens, UniProt Q02156); test: Eurofins kinase assay
EphB4(h) = EphB4(h) (Homo sapiens, UniProt P54760); test: Eurofins kinase assay
Syk(h) = Syk(h) (Homo sapiens, UniProt P43405); test: Eurofins kinase assay
SGK(h) = SGK(h) (Homo sapiens, UniProt O00141); test: Eurofins kinase assay
Chain of SGK(h) (O00141 whole entry): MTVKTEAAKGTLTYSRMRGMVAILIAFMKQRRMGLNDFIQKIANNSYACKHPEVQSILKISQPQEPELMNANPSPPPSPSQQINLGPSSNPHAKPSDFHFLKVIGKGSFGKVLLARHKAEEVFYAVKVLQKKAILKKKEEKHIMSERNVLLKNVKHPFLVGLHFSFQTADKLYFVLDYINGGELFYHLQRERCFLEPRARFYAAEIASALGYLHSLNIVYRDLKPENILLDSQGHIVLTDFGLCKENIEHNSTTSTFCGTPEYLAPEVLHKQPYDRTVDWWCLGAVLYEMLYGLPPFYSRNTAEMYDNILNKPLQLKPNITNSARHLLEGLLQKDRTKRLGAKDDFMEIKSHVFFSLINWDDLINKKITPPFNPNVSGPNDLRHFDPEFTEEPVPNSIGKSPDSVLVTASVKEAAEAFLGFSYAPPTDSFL

Chain of CSF1R (Homo sapiens, UniProt P07333) (P07333 20-972): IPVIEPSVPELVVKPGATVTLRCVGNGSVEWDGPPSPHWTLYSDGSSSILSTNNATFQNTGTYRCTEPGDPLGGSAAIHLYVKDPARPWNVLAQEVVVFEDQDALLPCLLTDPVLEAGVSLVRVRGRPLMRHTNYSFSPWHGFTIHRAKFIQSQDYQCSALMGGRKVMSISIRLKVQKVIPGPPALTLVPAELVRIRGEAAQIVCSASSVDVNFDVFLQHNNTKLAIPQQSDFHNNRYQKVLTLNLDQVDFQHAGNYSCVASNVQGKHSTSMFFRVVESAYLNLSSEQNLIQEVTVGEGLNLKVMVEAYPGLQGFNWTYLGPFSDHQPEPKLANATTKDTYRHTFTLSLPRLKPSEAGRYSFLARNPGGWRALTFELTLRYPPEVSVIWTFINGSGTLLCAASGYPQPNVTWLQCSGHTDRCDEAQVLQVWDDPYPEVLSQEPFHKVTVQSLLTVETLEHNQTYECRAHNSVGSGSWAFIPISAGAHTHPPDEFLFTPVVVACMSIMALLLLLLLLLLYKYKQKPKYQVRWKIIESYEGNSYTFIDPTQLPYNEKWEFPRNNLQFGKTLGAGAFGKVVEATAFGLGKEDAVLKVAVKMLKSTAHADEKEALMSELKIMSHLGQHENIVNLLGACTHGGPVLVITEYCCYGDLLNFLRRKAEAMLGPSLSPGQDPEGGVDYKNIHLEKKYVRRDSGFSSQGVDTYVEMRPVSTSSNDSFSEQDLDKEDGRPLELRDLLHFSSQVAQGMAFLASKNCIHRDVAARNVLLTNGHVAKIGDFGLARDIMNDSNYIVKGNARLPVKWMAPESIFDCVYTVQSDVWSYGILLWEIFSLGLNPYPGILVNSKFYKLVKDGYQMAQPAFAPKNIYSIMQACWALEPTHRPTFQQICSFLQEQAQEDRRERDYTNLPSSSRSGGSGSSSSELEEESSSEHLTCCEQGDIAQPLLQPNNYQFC
T1 sequence (P09581 20-977): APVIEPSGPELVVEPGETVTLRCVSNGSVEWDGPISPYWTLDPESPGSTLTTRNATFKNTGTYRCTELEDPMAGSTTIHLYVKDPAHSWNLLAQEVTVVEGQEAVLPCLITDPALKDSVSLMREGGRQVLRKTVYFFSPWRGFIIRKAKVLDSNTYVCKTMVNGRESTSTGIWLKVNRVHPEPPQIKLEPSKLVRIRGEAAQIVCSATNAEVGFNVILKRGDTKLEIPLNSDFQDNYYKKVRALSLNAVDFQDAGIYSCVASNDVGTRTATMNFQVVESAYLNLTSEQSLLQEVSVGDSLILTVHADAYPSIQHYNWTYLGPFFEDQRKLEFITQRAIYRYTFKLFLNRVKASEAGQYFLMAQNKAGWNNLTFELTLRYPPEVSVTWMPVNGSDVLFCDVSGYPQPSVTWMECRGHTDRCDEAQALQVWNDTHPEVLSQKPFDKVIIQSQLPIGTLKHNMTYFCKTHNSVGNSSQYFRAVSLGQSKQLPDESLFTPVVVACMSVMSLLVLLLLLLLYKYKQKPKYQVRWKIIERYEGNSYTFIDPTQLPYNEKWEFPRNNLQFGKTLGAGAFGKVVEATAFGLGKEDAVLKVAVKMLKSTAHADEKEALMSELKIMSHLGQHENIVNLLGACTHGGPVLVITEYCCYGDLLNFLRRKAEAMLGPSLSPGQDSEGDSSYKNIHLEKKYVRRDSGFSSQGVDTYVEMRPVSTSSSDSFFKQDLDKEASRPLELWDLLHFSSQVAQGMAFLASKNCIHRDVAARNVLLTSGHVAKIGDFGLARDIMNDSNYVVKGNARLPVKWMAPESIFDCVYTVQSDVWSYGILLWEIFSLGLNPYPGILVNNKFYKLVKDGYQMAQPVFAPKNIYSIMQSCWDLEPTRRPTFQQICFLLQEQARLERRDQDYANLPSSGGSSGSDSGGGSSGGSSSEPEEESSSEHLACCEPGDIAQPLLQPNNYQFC
T2 sequence (Q02858 23-1122): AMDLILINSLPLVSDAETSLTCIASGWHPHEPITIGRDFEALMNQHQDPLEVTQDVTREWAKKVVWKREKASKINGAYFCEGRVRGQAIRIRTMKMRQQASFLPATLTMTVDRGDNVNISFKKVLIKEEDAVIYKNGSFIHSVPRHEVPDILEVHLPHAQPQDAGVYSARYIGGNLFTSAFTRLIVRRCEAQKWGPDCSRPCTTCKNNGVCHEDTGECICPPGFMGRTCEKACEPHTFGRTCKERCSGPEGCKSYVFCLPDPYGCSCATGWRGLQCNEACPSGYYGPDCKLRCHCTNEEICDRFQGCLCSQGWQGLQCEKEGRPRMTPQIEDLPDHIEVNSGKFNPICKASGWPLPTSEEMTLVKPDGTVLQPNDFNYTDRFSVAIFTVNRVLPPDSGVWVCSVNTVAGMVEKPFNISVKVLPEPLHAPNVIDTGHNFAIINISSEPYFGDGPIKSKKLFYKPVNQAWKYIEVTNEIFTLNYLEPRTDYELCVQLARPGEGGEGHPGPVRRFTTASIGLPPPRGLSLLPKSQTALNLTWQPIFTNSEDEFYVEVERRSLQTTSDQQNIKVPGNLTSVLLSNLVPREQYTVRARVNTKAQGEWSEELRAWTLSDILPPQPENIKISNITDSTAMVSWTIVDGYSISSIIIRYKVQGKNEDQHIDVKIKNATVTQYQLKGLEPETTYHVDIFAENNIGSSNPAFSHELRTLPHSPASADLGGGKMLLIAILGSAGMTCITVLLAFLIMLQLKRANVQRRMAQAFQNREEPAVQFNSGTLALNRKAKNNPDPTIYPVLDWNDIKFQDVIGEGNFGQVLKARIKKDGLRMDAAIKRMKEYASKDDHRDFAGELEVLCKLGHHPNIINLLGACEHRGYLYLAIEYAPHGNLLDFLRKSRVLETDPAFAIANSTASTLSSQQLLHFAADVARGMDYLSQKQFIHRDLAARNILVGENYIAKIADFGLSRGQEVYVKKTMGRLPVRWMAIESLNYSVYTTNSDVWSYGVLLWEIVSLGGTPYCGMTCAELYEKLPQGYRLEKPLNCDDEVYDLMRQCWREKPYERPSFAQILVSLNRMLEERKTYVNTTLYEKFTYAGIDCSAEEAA
Chain of BTK(h) (Q06187 whole entry): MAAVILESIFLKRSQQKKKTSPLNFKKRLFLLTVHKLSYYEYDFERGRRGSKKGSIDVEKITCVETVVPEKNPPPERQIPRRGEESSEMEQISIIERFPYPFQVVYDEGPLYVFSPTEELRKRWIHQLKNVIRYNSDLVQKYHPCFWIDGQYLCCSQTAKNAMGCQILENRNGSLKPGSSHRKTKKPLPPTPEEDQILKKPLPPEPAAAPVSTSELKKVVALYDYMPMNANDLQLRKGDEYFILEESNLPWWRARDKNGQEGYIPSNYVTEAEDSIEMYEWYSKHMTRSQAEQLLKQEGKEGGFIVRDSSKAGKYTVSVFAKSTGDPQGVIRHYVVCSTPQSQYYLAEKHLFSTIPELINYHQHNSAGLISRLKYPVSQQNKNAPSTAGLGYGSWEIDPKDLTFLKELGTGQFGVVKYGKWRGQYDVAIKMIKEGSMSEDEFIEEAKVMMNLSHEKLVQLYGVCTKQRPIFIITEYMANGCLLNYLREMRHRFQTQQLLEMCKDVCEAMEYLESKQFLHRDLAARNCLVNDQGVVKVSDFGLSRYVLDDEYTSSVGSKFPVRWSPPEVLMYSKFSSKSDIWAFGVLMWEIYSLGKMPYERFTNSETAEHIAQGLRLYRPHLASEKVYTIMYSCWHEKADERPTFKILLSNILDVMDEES
Chain of PDK1(h) (O15530 whole entry): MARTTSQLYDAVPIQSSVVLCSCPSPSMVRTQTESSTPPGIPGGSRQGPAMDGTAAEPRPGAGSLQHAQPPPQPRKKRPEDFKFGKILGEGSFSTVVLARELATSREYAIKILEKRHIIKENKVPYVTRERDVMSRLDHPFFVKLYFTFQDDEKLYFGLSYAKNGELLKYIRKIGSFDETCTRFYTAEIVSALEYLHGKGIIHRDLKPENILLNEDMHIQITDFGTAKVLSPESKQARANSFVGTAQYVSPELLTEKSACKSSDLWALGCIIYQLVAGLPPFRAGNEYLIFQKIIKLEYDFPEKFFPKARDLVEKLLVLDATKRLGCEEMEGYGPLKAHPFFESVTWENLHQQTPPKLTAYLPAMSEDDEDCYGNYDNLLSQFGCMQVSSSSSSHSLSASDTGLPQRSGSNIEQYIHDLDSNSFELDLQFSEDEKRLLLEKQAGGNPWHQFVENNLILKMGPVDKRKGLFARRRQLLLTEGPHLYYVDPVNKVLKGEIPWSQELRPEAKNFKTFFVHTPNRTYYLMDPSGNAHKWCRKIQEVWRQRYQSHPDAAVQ

## O=C(Nc1cc(Nc2ncccc2-c2ncnc3[nH]cnc23)ccc1F)c1cc(C(F)(F)F)cc(C(F)(F)F)c1 [SJ-C1044, N-(5-(3-(9H-purin-6-yl)pyridin-2-ylamino)-2-fluorophenyl)-3,5-bis(trifluoromethyl)benzamide]
CSF1R [1]
  ligand-dependent phosphorylation of CSF1R: significant inhibitory effects
TIE2
  ligand-dependent phosphorylation of TIE2: significant inhibitory effects
HUVECs
  VEGF-stimulated endothelial tube formation: strong activity
HUVECs; 10 μM, 10 nmol/L VEGF
  VEGF-induced tube formation, compared to LY3009120: more effectively blocked
MC38 tumor tissue
  CD31 staining (angiogenesis): reduced
  CD163+ or CD206+ staining (M2 macrophages): significant decrease
  F4/80+ staining intensity (pan macrophage marker): notably reduced
  infiltration of CD8+ T cells: increase
  population of FOXP3+ cells: reducing
[2]
  single oral dose toxicity: no respiratory effects or signs of toxicity
CSF1R [3]
  IC50: 235 nM
  inhibition at 10 µM: 70%
BRAF
  inhibition at 10 µM: 68%
BTK(h)
  inhibition at 10 µM: 18%
ATR/ATRIP(h)
  inhibition at 10 µM: 8%
PDK1(h)
  inhibition at 10 µM: 0%
PKCε(h)
  inhibition at 10 µM: -5%
EphB4(h)
  inhibition at 10 µM: -6%
Syk(h)
  inhibition at 10 µM: -26%
SGK(h)
  inhibition at 10 µM: -34%
